Measured values published in US11389415B2, “Methods of regulating cannabinoid receptor activity-related disorders and diseases” (The United States of America as represented by the …, priority 2012, dated 2022).

Legend:
PANC-1 cells = assay: Scratch wound-healing assay, PANC-1 cells; format: cell-based, human; details: PANC-1, 1 μM
Method: Scratch assays. These assays were carried out essentially as described previously (Fiori et al., Endocrinology 150: 2551-2560, 2009). In brief, cells were seeded in 12-well nontreated polystyrene cell culture plates with flat bottom (Greiner Bio-One, Monroe, N.C.). Once the cells became confluent, a scratch wound was made with a pipette tip and pictured immediately (time 0). […] Cell migration was examined at 12, 24, 36, 48 hours and 12, 18, 24, 48 hours after scratch for the HepG2 and PANC-1 cells, respectively. Images of the same field were taken every 3 hours to determine the rate of cell migration. Images were captured on an Axiovert 200 inverted microscope (Carl Zeiss, Thornwood, N.Y.) mounted with an AxioCam HRc digital camera (Carl Zeiss) and the measurement of scratch area was performed with ImageJ 1.46s software (National Institutes of Health, Bethesda, Md.). Each study was performed in duplicate dishes and repeated at least twice.

[1] = In vitro metabolic stability, rat liver microsomes; format: in vitro ADME; details: rat liver microsomes and cofactors, 37° C., 0-60 minutes
Method: FIG. 10 presents the data from the in vitro metabolic stability study in which MNF was incubated (in duplicate) with active and heat-inactivated human (HLM) and rat (RLM) liver microsomes and cofactors at 37° C. Aliquots were removed at 0, 15, 30 and 60 minutes and the amount of test compound (MNF) remaining at each time point was determined by LC-MS/MS.

GPR55 = GPR55 (Homo sapiens, UniProt Q9Y2T6); assay: GPR55 internalization assay in hGPR55-HEK293 cells; format: cell-based; details: 1 μM pretreatment 45 minutes
Sequence of GPR55 (Q9Y2T6 whole entry): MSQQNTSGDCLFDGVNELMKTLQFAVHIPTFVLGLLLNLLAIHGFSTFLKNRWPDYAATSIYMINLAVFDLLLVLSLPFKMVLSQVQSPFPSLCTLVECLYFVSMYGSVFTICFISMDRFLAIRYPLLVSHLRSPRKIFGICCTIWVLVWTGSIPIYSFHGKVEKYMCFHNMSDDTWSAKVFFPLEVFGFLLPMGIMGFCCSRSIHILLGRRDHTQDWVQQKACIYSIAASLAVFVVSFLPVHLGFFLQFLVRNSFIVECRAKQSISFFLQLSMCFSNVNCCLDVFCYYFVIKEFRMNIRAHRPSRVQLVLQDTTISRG
Method: GPR55 internalization assay. Endocytosis of GPR55 was observed following a previously described protocol with minor modifications (Henstridge et al., Br. J. Pharmacol. 160: 604-614, 2010). Briefly, hGPR55-HEK293 cells were grown on Lab-Tek II CC2 chamber slides (Thermo Scientific Nunc, Rochester, N.Y.) for 48 hours in regular media and then were serum starved for 1 hour. A preincubation with 1:1000 rabbit HA antibody (Covance, Md.) was performed in the presence of vehicle (0.1% DMSO) or 1 μM MNF in serum-free media for 45 minutes at 37° C. in the CO2 incubator. Cells were then washed extensively with PBS and treated with 5 μM 01602 in serum-free media for 20 minutes at 37° C. in the CO2 incubator. Subsequently, cells were washed three times, fixed in fresh 3.7% paraformaldehyde in PBS (10 min), and incubated with anti-rabbit Alexa Fluor 488 antibody (Molecular Probes, Eugene, Oreg.; 1:1000, 30 minutes). Cells were washed and fixed for a second time prior to permeabilization with 0.2% Triton X-100 (5 minutes). Incubation with anti-rabbit Alexa Fluor 568 antibody (Molecular Probes; 1:1000, 30 minutes) was carried out to determine the extent of internalized GPR55-HA antibody complex. […]

HepG2 cells = assay: [3H]-Thymidine incorporation assay in HepG2 cells; format: cell-based, human; details: 1 μM, 24 h
How it was run: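 HepG2 and U87MG cells (~50,000/well) were treated 24 hours at 37° C with test compounds in serum-free medium, then labelled 16 hours with 1 μCi [3H]-thymidine. Cells were lysed in 0.1N NaOH and incorporation measured by scintillation counting, expressed as CPM relative to control cells.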

CYP3A4 = target: T1, CYP3A4 (Homo sapiens, UniProt P08684); assay: CYP inhibition in human liver microsomes, CYP3A4; format: in vitro ADME; details: 10 μM, 20 minutes, 37° C.
T1 construct: from tissue; host or cells: human liver microsomes
T1 sequence (P08684 whole entry): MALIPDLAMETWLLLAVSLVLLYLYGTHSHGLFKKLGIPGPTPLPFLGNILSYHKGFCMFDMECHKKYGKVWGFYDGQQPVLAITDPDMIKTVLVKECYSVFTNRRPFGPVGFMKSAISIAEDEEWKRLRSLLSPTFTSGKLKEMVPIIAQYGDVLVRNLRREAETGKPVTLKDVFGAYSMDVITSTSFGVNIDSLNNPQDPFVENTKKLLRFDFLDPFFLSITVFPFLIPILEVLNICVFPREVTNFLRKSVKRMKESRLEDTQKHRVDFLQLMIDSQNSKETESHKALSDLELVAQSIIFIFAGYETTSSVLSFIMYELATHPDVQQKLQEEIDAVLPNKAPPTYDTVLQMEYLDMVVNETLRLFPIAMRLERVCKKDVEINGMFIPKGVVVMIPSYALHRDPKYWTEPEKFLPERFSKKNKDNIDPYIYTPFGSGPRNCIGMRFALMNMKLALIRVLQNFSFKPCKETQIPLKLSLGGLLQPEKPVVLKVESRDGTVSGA
Method: Incubations containing known CYP inhibitors were also included as positive controls. Formation of the model substrate metabolites was measured by LC-MS/MS and compared to control incubations (incubation of substrates with microsomes and cofactors, no test articles or inhibitors). CYP activity in presence of test compound (MNF) that was less than 70% of control was considered significant. MNF (10 μM) inhibited CYP2D6 and CYP3A4 to less than 70% of the control. Further, the primary metabolite was determined to be O-demethylated-MNF. These studies indicate that MNF alters the metabolism of other drugs or endogenous compounds that are substrates for CYP2D6 and/or CYP3A4 isoforms, when present in the plasma or liver at 10 μM or higher.

[2] = tested on: Sox4, Olig1, Galnt3, Cdkn3, Ccna2, Bub1b mRNA; assay: qRT-PCR of selected genes in C6 xenograft tumors; format: in vivo, mouse; details: MNF-treated mice
Method: Total RNA extraction, cDNA synthesis and qRT-PCR analysis. Total RNA (including the DNase treatment step) was isolated from frozen tumor tissues using the RNeasy mini kit (Qiagen, Valencia, Calif.). RNA concentration and quality was measured using the NanoDrop spectrophotometer (NanoDrop Technologies, Wilmington, Del.). Subsequently, 2 μg total RNA was reverse-transcribed to cDNA using the qSCRIPT™ cDNA SuperMix (Quanta Biosciences, Gaithersburg, Md.). Quantitative real-time PCR (qRT-PCR) reactions were performed to validate the expression of 6 genes that were selected from the microarray analysis. The reactions were carried out with SYBR® Green PCR master mix on an ABI Prism 7300 sequence detection system (Applied Biosystems) using commercially available target probes for Sox4, Olig1, Galnt3, Cdkn3, Ccna2, and Bub1b (PrimeTime qPCR Assays and Primers, IDT DNA Technologies, Coralville, Iowa). The data was analyzed using the 2-ΔΔCt method with Gapdh and vehicle-treated tumors as internal controls. Controls consisting of reaction mixture without cDNA were negative in all runs.

CAPAN = assay: tumor cell growth, CAPAN; details: read-out: IC50 (uM), CAPAN (Pancreatic C)

Structure (SMILES)	cell motility, compound alone (PANC-1 cells)	effect on AM251-induced motility (PANC-1 cells; AM251 1 μM)	effect on wound closure evoked by O-1602 (PANC-1 cells; O-1602 1 μM)	metabolic stability, MNF levels [1]	effect on O-1602-induced GPR55 internalization (GPR55)	% Change in HepG2 cells ([3H]-thymidine incorporation) (HepG2 cells) [%]	CYP3A4 activity in presence of test compound (CYP3A4)	mRNA expression by quantitative RT-PCR compared to control [2]	IC50 (CAPAN) [µM]
COc1ccc(C[C@@H](C)NC[C@H](O)c2cc(O)cc(O)c2)c2ccccc12 [(R,R′)-MNF, (R,R′)-4′-methoxy-1-naphthylfenoterol]	did not alter the constitutive rate of gap filling	produced significant decrease in AM251-induced motility of PANC-1 cells	inhibit the wound closure evoked by O-1602 in PANC-1 cells	greater decrease in MNF levels	blocked by pretreatment with MNF	−59.4	less than 70 % of the control	decreased the expression of Bub1b, Cdkn3 Ccna2, Olig1, Sox4, and Galnt3	–
COc1cccc2c1C(=O)c1c(O)c3c(c(O)c1C2=O)C[C@@](O)(C(=O)CO)C[C@@H]3O[C@H]1C[C@H](N)[C@H](O)[C@H](C)O1 [Doxorubicin, reference compound]	–	–	–	–	–	–	–	–	0.23
